The source of these data is patent US20220151989A1, “LIPOIC ACID PRODRUG” (SANTEN PHARMACEUTICAL CO., LTD., priority 2019, published 2022).

SMILES strings stand for the structures.

Experiment [1] concerns lens elasticity. The experiment is described as follows: Pharmacological Test-1: lens elasticity after instillation 3 times per day for 12 to 15 days. It is filed as in vivo, C57BL/6J mice. The note with it: for Lens elasticity improvement: 0.03% (w/v) solution, 2.5 μL/eye, right eye, 3 times per day for 12 to 15 days, 8-month-old mice, vs vehicle control; for lens elasticity improving effect: at a concentration of 0.03%. The method, then:
The effects of compounds 1 to 4 on the lens elasticity were examined. The tests were conducted with reference to the methods described in Invest Ophthalmol Vis Sci, 57, 2851-2863, 2016.
A vehicle (aqueous solution) comprising 0.1% (w/v) of ethyl pyruvate, 0.269% (w/v) of sodium dihydrogenphosphate monohydrate (NaH2PO4.H2O), 0.433% (w/v) of di sodium hydrogenphosphate (Na2HPO4), 0.2% (w/v) of hydroxypropyl methylcellulose, 0.5% (w/v) of NaCl, 1.0% (w/v) of polyoxyl 35 castor oil (hereinafter also referred to as “CO35”), and purified water (appropriate amount) was prepared.
Each of compounds 1 to 4 was stirred with the addition of the vehicle to give a 0.03% (w/v) solution.
EV06 was stirred with the addition of the vehicle to give a 0.03% (w/v) solution. (Test method) 1) Each test sample (2.5 μL/eye) was instilled into the right eye of 8-month-old C57BL/6J mice with a Pipetman 3 times per day (around 9:00, 13:00, 17:00) for 12 to 15 days. 2) After the final instillation, the mice were euthanized by carbon dioxide inhalation, and then the eyeballs were extracted and rinsed with Hank's balanced salt solution (HESS). 3) The sclera near the optic nerve was cut with a razor, the lens was removed through the incision, and the removed lens was immersed in HESS. 4) The lens was placed on a glass slide, and an all-in-one fluorescence microscope BZ-9000 (Keyence) was used to capture an image of the lens (Image a). 5) Next, one cover glass (Corning^registered trade mark) 22×22 mm Square) was placed on the lens, and an image in which the thickness of the lens changed due to the weight was similarly captured (Image b). 6) A change in the lens diameter was calculated from the following Equation 1 wherein the lens diameter of Image a is subtracted from the lens diameter of Image b. Then, the lens elasticity improvement of each sample group compared with the vehicle control group was calculated from Equation 2 described below. The mean value of the vehicle control group was based on 5 eyes, the mean value of each of the sample groups of compounds 1 to 4 was based on 10 eyes, and the mean value of EV06 sample group was based on 9 eyes.
(§1) Change in lens diameter=Lens diameter in Image b of each test sample−Lens diameter in Image a of each test sample (Equation 1)
(§2) Lens elasticity improvement of each sample group=Mean change in lens diameter of each Test sample group−Mean change in lens diameter of Vehicle control group (Equation 2)

Experiment [2] deals with lens elasticity. The experiment is described as follows: Pharmacological Test-2: lens elasticity at different concentrations, instillation 3 times per day for 12 to 15 days. It is filed as in vivo, C57BL/6J mice. Conditions: for Lens elasticity improvement: 3 times per day for 12 to 15 days, 7 to 8-month-old mice. The method, then: The effects of Compounds 1, 3, and 4 on the lens elasticity were investigated at different concentrations.
Vehicle A (aqueous solution) comprising 0.1% (w/v) of ethyl pyruvate, 0.269% (w/v) of sodium dihydrogenphosphate monohydrate (NaH2PO4.H2O), 0.433% (w/v) of disodium hydrogenphosphate (Na2HPO4), 0.2% (w/v) of hydroxypropyl methylcellulose, 0.5% (w/v) of NaCl, 0.2% (w/v) of 0035, and purified water (appropriate amount) was prepared.
Vehicle B (emulsion) comprising 0.1% (w/v) of ethyl pyruvate, 0.269% (w/v) of sodium dihydrogenphosphate monohydrate (NaH2PO4.H2O), 0.433% (w/v) of disodium hydrogenphosphate (Na2HPO4), 0.2% (w/v) of hydroxypropyl methylcellulose, 0.5% (w/v) of NaCl, 0.2% (w/v) of CO35, 0.6% benzyl benzoate, and purified water (appropriate amount) was prepared.
Vehicle C (aqueous solution) comprising 0.1% (w/v) of ethyl pyruvate, 0.269% (w/v) of sodium dihydrogenphosphate monohydrate (NaH2PO4.H2O), 0.433% (w/v) of disodium hydrogenphosphate (Na2HPO4), 0.2% (w/v) of hydroxypropyl methylcellulose, 0.5% (w/v) of NaCl, 1.0% (w/v) of 0035, and purified water (appropriate amount) was prepared.
Vehicle D (emulsion) comprising 0.1% (w/v) of ethyl pyruvate, 0.269% (w/v) of sodium dihydrogenphosphate monohydrate (NaH2PO4.H2O), 0.433% (w/v) of disodium hydrogenphosphate (Na2HPO4), 0.2% (w/v) of hydroxypropyl methylcellulose, 0.5% (w/v) of NaCl, 1.0% (w/v) of CO35, 3.0% benzyl benzoate, and purified water (appropriate amount) was prepared.
A diluent (aqueous solution) comprising 0.1% (w/v) of ethyl pyruvate, 0.269% (w/v) of sodium dihydrogenphosphate monohydrate (NaH2PO4.H2O), 0.433% (w/v) of disodium hydrogenphosphate (Na2HPO4), 0.2% (w/v) of hydroxypropyl methylcellulose, 0.5% (w/v) of NaCl, and purified water (appropriate amount) was prepared.
Compound 1 was stirred with the addition of Vehicle C to prepare a 1.5% (w/v) emulsion, and the emulsion was diluted with the diluent to give a 0.3% (w/v) emulsion. Further, the resulting 0.3% (w/v) emulsion was diluted with the diluent to give a 0.03% (w/v) emulsion. Further, the resulting 0.03% (w/v) emulsion was diluted with the diluent to give a 0.003% (w/v) emulsion.
Compound 3 was stirred with the addition of Vehicle C to give a 1.5% (w/v) solution, and the resulting solution was diluted to give a 0.3% (w/v) solution. Further, the resulting 0.3% (w/v) solution was diluted with Vehicle A to give a 0.03% (w/v) solution. Further, the resulting 0.03% (w/v) solution was diluted with Vehicle A to give a 0.003% (w/v) solution.
Compound 4 was stirred with the addition of Vehicle D to give a 1.5% (w/v) emulsion, and the resulting emulsion was diluted with the diluent to prepare a 0.3% (w/v) emulsion. Further, the resulting 0.3% (w/v) emulsion was diluted with the diluent to give a 0.03% (w/v) emulsion. Further, the resulting 0.03% (w/v) emulsion was diluted with the diluent to give a 0.003% (w/v) emulsion.
EV06 was stirred with the addition of Vehicle A to give a 1.5% (w/v) solution, which was used for comparison to the samples of Compound 1 and 3.
EV06 was sonicated with the addition of Vehicle B to give a 1.5% (w/v) emulsion, which was used for comparison to Compound 4 sample.
(Test method) 1) Each test sample (2.5 μL/eye) was instilled into the right eye of 7 to 8-month-old C57BL/6J mice with a Pipetman 3 times per day (around 9:00, 13:00 and 17:00) for 12 to 15 days. 2) After the final instillation, the mice were euthanized by carbon dioxide inhalation, and then the eyeballs were extracted and rinsed with Hank's balanced salt solution (HESS). 3) The sclera near the optic nerve was cut with a razor, the lens was removed through the incision, and the removed lens was immersed in HESS. 4) The lens was placed on a glass slide, and an all-in-one fluorescence microscope BZ-9000 (Keyence) was used to capture an image of the lens (Image a). […]

In experiment [3] the test system is lens elasticity. The experiment is described as follows: Pharmacological Test-3: lens elasticity, Compounds 5 and 6, 3 times per day for 14 days. The note with it: for Lens elasticity improvement: 0.03% (w/v) solution in Vehicle C, both eyes, 3 times per day for 14 days, 9-month-old mice; for lens elasticity improving effect: at a concentration of 0.03%. It counts as in vivo,  mice. The method, then: The effects of Compounds 5 and 6 on the lens elasticity were investigated.
Compound 5 was stirred with the addition of Vehicle C to give a 0.03% (w/v) solution.
Compound 6 was stirred with the addition of Vehicle C to give a 0.03% (w/v) solution.
EV06 was stirred with the addition of Vehicle C to give a 0.03% (w/v) solution, which was used for comparison to the samples of Compounds 5 and 6.
1) Each test sample (2.5 μL/eye) was instilled into both eyes of 9-month-old […] mice with a Pipetman 3 times per day (around 9:00, 13:00 and 17:00) for 14 days. 2) After the final instillation, the mice were euthanized by carbon dioxide inhalation, and then the eyeballs were extracted and rinsed with Hank's balanced salt solution (HESS). 3) The sclera near the optic nerve was cut with a razor, the lens was removed through the incision, and the removed lens was immersed in HESS. 4) The lens was placed on a glass slide, and an all-in-one fluorescence microscope BZ-9000 (Keyence) was used to capture an image of the lens (Image a). 5) Next, one cover glass (Corning^(registered trade mark) 22×22 mm Square) was placed on the lens, and an image in which the thickness of the lens changed due to the weight was similarly captured (Image b). 6) A change in the lens diameter was calculated from the following Equation 1 wherein the lens diameter of Image a is subtracted from the lens diameter of Image b. Then, the lens elasticity improvement of each sample group compared with the vehicle control group was calculated from Equation 2 described below. The mean value of the vehicle control group was based on 8 eyes, and the mean value of each of the sample groups of Compounds 5 and 6 and EV06 was based on 10 eyes.
as §1, §2

For `O=C(CCCC[C@@H]1CCSS1)OCCN1CCOCC1` [Compound 4, 2-Morpholinoethyl (R)-5-(1,2-dithiolan-3-yl)pentanoate], the Lens elasticity improvement in the experiment with lens elasticity [1] was 37.5 μm; in the experiment on lens elasticity [2] (0.003% (w/v) sample), 25.0 μm; with lens elasticity [2] (0.03% (w/v) sample), 56.5 μm; with lens elasticity [2] (0.3% (w/v) sample) it was 52.9 μm. Besides, the “lens elasticity improving effect” value with lens elasticity [1] was “potent lens elasticity improving effect”. Besides, the “lens elasticity improvement compared with 1.5% EV06 group” value in the experiment on lens elasticity [2] (0.03% and 0.3% sample groups) is listed as “equivalent to or better than 1.5% EV06 group”.
Consider `Cc1ncc(COC(=O)CCCC[C@@H]2CCSS2)c2c1OC(C)(C)OC2` [Compound 6, (2,2,5-Trimethyl-4H-[1,3]dioxo[5,4-c]pyridin-8-yl)methyl (R)-5-(1,2-dithiolan-3-yl)pentanoate], for which, in the experiment on lens elasticity [3], the Lens elasticity improvement came out at 38.1 μm and the “lens elasticity improving effect” value was “potent lens elasticity improving effect”.
In the case of `C[N+](C)(CCOC(=O)CCCC[C@@H]1CCSS1)Cc1ccccc1.[Cl-]` [Compound 2, (R)-2-((5-(1,2-Dithiolan-3-yl)pentanoyl)oxy)-N-benzyl-N,N-dimethylethan-1-aminium chloride], in the experiment with lens elasticity [1], the Lens elasticity improvement was determined as 6.1 μm and the “lens elasticity improving effect” value was “did not show lens elasticity improving effect”.
With `O=C(CCCC[C@@H]1CCSS1)OC(CN1CCOCC1)CN1CCOCC1` [Compound 5, 1,3-Dimorpholinopropan-2-yl (R)-5-(1,2-dithiolan-3-yl)pentanoate], in the experiment with lens elasticity [3], the Lens elasticity improvement is listed as 40.7 μm and the “lens elasticity improving effect” value was “potent lens elasticity improving effect”.
